# Measurements: ChEMBL document CHEMBL2331300, “Inhibition of enterovirus 71 infections and viral IRES activity by Fructus gardeniae and geniposide” (2013)
# What was measured:
# [1] = tested on: Enterovirus A71; experiment: Antiviral activity against EV71 infected in human RD cells assessed as cell survival rate at 1 to 2 mg/ml after 24 hrs by WST-1 assay; format: functional
# [2] = tested on: Enterovirus A71; experiment: Antiviral activity against EV71 infected in human RD cells assessed as viral RNA transcript level at 2 mg/ml treated 24 hrs prior to infection measured after 24 hrs by real time RT-PCR analysis; format: functional
# [3] = tested on: RD; experiment: Inhibitory activity of EV71 IRES co-transfected with EMCV IRES in human RD cells at 2 mg/ml after 24 hrs by luciferase reporter gene assay; format: cell-based; details: Enterovirus A71
# [4] = tested on: Enterovirus A71; experiment: Antiviral activity against EV71 infected in human RD cells assessed as inhibition of viral infection at 2 mg/ml treated 24 hrs prior to infection measured after 72 hrs by WST-1 assay; format: functional; details: Enterovirus A
# [5] = tested on: Enterovirus A71; experiment: Antiviral activity against EV71 infected in human RD cells assessed as viral RNA transcript level at 1 mg/ml treated 24 hrs prior to infection measured after 24 hrs by real time RT-PCR analysis; format: functional
# [6] = tested on: RD; experiment: Inhibitory activity of EMCV IRES co-transfected with EV71 5' UTR in human RD cells at 2 mg/ml after 24 hrs by luciferase reporter gene assay; format: cell-based; details: Encephalomyocarditis virus
SMILES,Survival [1],Activity [2] [%],inhibition [3] [%],inhibition at 2000 µg/mL [4] [%],Activity [5] [%],inhibition [6] [%]
CC(/C=C/C=C(\C)C(=O)O[C@@H]1O[C@H](CO[C@@H]2O[C@H](CO)[C@@H](O)[C@H](O)[C@H]2O)[C@@H](O)[C@H](O)[C@H]1O)=C\C=C\C=C(C)\C=C\C=C(/C)C(=O)O[C@@H]1O[C@H](CO[C@@H]2O[C@H](CO)[C@@H](O)[C@H](O)[C@H]2O)[C@@H](O)[C@H](O)[C@H]1O [CROCIN],>=80%,–,–,–,–,–
COC(=O)C1=CO[C@@H](O)[C@@H]2C(CO)=CC[C@H]12 [GENIPIN],>=80%,–,–,–,–,–
COC(=O)C1=CO[C@@H](O[C@@H]2O[C@H](CO)[C@@H](O)[C@H](O)[C@H]2O)[C@@H]2C(CO)=CC[C@H]12 [GENIPOSIDE],>=80%,20,50,80,60,50
O=C(O)C1=CO[C@@H](O[C@@H]2O[C@H](CO)[C@@H](O)[C@H](O)[C@H]2O)[C@@H]2C(CO)=CC[C@H]12 [GENIPOSIDIC ACID],>=80%,–,–,–,–,–
